Experimental data as given in ChEMBL document CHEMBL1201862, “PubChem BioAssay data set” (2004).
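Method: 48-hour compound exposure of cells in 96-well plates, five concentrations, linear interpolation of endpoints. Here, GI50 denotes the concentration required for 50% inhibition of growth.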 The source made the active and inactive calls. No stated cut-off is given here; in the data, active = GI50 up to about 1.1 µM and inactive = higher.

Tests used:
Experiment in all cases: NCI anticancer screen, dose series, 48 h
[1] = test system: 786-0
[2] = test system: ACHN
[3] = test system: EKVX
[4] = test system: HCC 2998
[5] = test system: HL-60
[6] = test system: NCI-H460
[7] = test system: NCI-H522
[8] = test system: OVCAR-4
[9] = test system: OVCAR-8
[10] = test system: SK-MEL-5
[11] = test system: SNB-75
[12] = test system: SW-620
[13] = test system: TK-10
[14] = test system: U-251
[15] = test system: UACC-62
[16] = test system: UO-31
[17] = test system: Hs-578T
[18] = test system: T47D
[19] = test system: PC-3

Measured: GI50

COc1cccc2nc3cc(C)c(C)cc3nc12
inactive: [1] > 100 µM | [2] > 100 µM | [3] > 100 µM | [4] > 100 µM | [5] > 100 µM | [6] > 100 µM | [7] 95.9 µM | [8] > 100 µM | [9] > 100 µM | [10] 97.5 µM | [11] > 100 µM | [12] > 100 µM | [13] > 100 µM | [14] > 100 µM | [15] > 100 µM | [16] 61.2 µM

Nc1nnc2nc(CC(=O)/C=C/c3ccccc3)c(=O)[nH]n12
inactive: [1] > 100 µM | [2] > 100 µM | [3] > 100 µM | [4] > 100 µM | [5] > 100 µM | [6] > 100 µM | [7] > 100 µM | [8] > 100 µM | [9] > 100 µM | [10] > 100 µM | [11] > 100 µM | [12] > 100 µM | [13] > 100 µM | [14] > 100 µM | [15] > 100 µM | [16] > 100 µM

CCNC(=O)/C=C/CCC#Cc1ccc(-c2ccc(-c3cccs3)s2)s1
inactive: [1] > 100 µM | [2] > 100 µM | [3] > 100 µM | [4] > 100 µM | [5] > 100 µM | [6] > 100 µM | [7] > 100 µM | [8] > 100 µM | [9] > 100 µM | [10] 5.24 µM | [11] > 100 µM | [12] > 100 µM | [13] > 100 µM | [14] > 100 µM | [15] 2.9 µM | [16] > 100 µM

CCOC(=O)/C(O)=C/c1cc(OC)cc(=O)o1
inactive: [1] > 100 µM | [2] > 100 µM | [3] > 100 µM | [4] > 100 µM | [5] > 100 µM | [6] > 100 µM | [7] > 100 µM | [8] > 100 µM | [9] > 100 µM | [10] > 100 µM | [11] > 100 µM | [12] > 100 µM | [13] > 100 µM | [14] > 100 µM | [15] > 100 µM | [16] > 100 µM

C=C1CC2CC(=O)C(O)C(C1)C2 (centres undefined)
inactive: [1] > 100 µM | [2] > 100 µM | [3] > 100 µM | [4] > 100 µM | [5] > 100 µM | [17] > 100 µM | [6] > 100 µM | [7] > 100 µM | [9] > 100 µM | [10] > 100 µM | [11] 58.5 µM | [12] > 100 µM | [18] 69 µM | [13] > 100 µM | [15] > 100 µM | [16] > 100 µM

CC1(CO)C(=O)OC12CCCCC2 (centres undefined)
inactive: [1] > 100 µM | [3] > 100 µM | [4] > 100 µM | [5] > 100 µM | [7] > 100 µM | [8] > 100 µM | [9] > 100 µM | [11] 84.5 µM | [12] > 100 µM | [13] > 100 µM | [15] > 100 µM | [16] 63.4 µM

O=C(O)CCC(NC(=O)c1ccc(OCc2nc3cc(C(F)(F)F)ccc3nc2-c2ccccc2)cc1)C(=O)O (centres undefined)
inactive: [1] > 100 µM | [2] > 100 µM | [3] > 100 µM | [4] > 100 µM | [5] > 100 µM | [6] > 100 µM | [7] > 100 µM | [8] > 100 µM | [9] > 100 µM | [19] > 100 µM | [11] > 100 µM | [12] > 100 µM | [18] > 100 µM | [13] > 100 µM | [14] > 100 µM | [15] > 100 µM | [16] > 100 µM

CC1=C(C(=O)Nc2cc(F)c(F)cc2F)C(c2ccc(N(C)C)cc2)C(C(=O)Nc2cc(F)c(F)cc2F)=C(C)N1
inactive: [1] 27.1 µM | [2] 19.4 µM | [3] 16 µM | [4] 23.7 µM | [5] 13.9 µM | [6] 30.3 µM | [7] 19.8 µM | [8] 17.7 µM | [9] 29.6 µM | [10] 17.8 µM | [11] 21.5 µM | [12] 28.8 µM | [13] 32.7 µM | [14] 28.9 µM | [16] 17.1 µM

CSc1nc2c(nc(N)n2C2OC(CO)C(O)C(O)C2O)c(=O)n1C (centres undefined)
inactive: [1] > 100 µM | [2] > 100 µM | [3] > 100 µM | [4] > 100 µM | [5] > 100 µM | [6] > 100 µM | [7] > 100 µM | [8] > 100 µM | [9] > 100 µM | [10] > 100 µM | [11] > 100 µM | [12] > 100 µM | [13] > 100 µM | [14] > 100 µM | [15] > 100 µM | [16] > 100 µM

CC12OC3(C(O)C1O)C(C(=O)O[C@H]3CO[Si](C)(C)C(C)(C)C)C2S(=O)(=O)c1ccccc1 (some centres undefined)
inactive: [1] 71.1 µM | [2] 48.1 µM | [3] 46.9 µM | [5] 25.9 µM | [17] 30 µM | [6] 44.7 µM | [7] 17.5 µM | [8] 34 µM | [9] 29.9 µM | [19] 26.9 µM | [11] 13.9 µM | [12] 81.5 µM | [18] 36.1 µM | [13] 59.8 µM | [14] 86.3 µM | [15] 16.1 µM | [16] 40.8 µM

CCN(CC)CCOC(=O)c1ccc(N)cc1.CCOC(=O)Nc1ccc(S(=O)(=O)OC)cc1.CCOC(=O)Nc1ccc(S(=O)(=O)OC)cc1.Nc1ccc(C(=O)O)c(O)c1
inactive: [1] > 100 µM | [2] > 100 µM | [3] > 100 µM | [4] > 100 µM | [5] > 100 µM | [6] > 100 µM | [7] > 100 µM | [8] > 100 µM | [9] > 100 µM | [10] > 100 µM | [11] 40.2 µM | [12] > 100 µM | [13] > 100 µM | [14] > 100 µM | [15] > 100 µM | [16] > 100 µM

CC(C)C1COC(C(C)(C)C2=N[C@@H](C(C)C)CO2)=N1 (some centres undefined)
inactive: [1] > 100 µM | [2] > 100 µM | [3] > 100 µM | [4] > 100 µM | [5] > 100 µM | [6] > 100 µM | [7] > 100 µM | [8] > 100 µM | [9] > 100 µM | [10] > 100 µM | [11] > 100 µM | [12] > 100 µM | [13] > 100 µM | [14] > 100 µM | [15] > 100 µM | [16] > 100 µM
